One assay relates to MDA-MB-231. Put plainly: BH3 profiling in pre-made frozen versus freshly prepared plates (FIG. 5). In kind it is cell-based. The note with it: responsive cells MDA-MB-231. From the text: Also included in the invention are kits for performing BH3 Profiling using whole cells. The kit consists of a multi-well plate containing staining components in a mitochondrial buffer and a tube of mitochondrial buffer for the suspension and dispensing of cells into the plate for analysis. Each well of the multi-well plate contains a mixture of JC-1 dye, oligomycin, 2-mercaptoethanol, digitonin, and a peptide or small molecule at twice their final concentration, Optionally the plate and suspension buffer tube can be frozen for later use along with the suspension buffer tube. To use, the plate and buffer tube are thawed and brought to room temperature. Cells are suspended in buffer, dispensed into the wells of the plate, and analyzed in a fluorescence plate reader using the JC-1 red fluorescence at 590 nm with excitation at 545 nm.

Another assay concerns SuDHL4 cell line. Put plainly: miBH3 profile of the SuDHL4 cell line (FIG. 4). In kind it is cell-based. The note with it: FIG. 4A, matches other BH3 profiling methods in FIG. 4B. On the procedure: BH3 profiling can be accomplished at the single cell level by immobilizing cells on a solid surface. Optionally the solid surface is polyamine or poly-lysine coated. Immobilized cells are permeabilized as described above. The cells are then contacted with BH3 peptides and/or test agents. After the cells have been treated for a predetermined period of time such as 45-90 minutes, the cells are fixed and further permeabilized by methods known in the art. For example the cells are fixed with formaldehyde and further permeabilized with methanol or Triton X-100 (t-Octylphenoxypolyethoxyethanol). Outer membrane permeabilization is determined by intracellular staining for molecules from the mitochondrial inter-membrane space and a mitochondrial marker. Examples of molecules that can be measured include cytochrome c, SMAC/Diablo, Omi, adenylate kinase-2 or apoptosis inducing factor (AIF). A mitochondrial marker includes MnSOD. Stained cells can be counterstained with nuclear stains such as DAPI. Optionally other intracellular and extracellular markers can be measured. […]
MicroBH3 (miBH3) is a BH3 profiling method where the measurement of the mitochondrial effect of […] peptides have on individual cells by microscopy. […] Fixed cells by this method can be readily stopped at the fixation step and can be analyzed weeks after acquisition as well as readily re-analyzed if needed.

Take “BAD: BH3 domain peptide LWAAQRYGRELRRMSDEFEGSFKGL, SEQ ID NO 4”: the “response to peptide treatment in frozen and freshly prepared plates” value in the assay on MDA-MB-231 is given as “comparable response”. The “release of cytochrome c / loss of correlation between cytochrome c and MnSOD channels” value with SuDHL4 cell line was “Release of cytochrome c and loss of correlation”.

Values taken from patent publication US10739333B2, “Methods of BH3 profiling” (Dana-Farber Cancer Institute, Inc., priority 2013, dated 2020).
